In one experiment the target is T1, Y120A-SSB-2ΔSB (Mus musculus, UniProt O88838, Y120A).
T1 construct: tyrosine 120 had been mutated to alanine (Y120A-SSB-2ΔSB; a.a.12-224); GST (N, cleaved yes); made in house; host or cells: E. coli (bacterially expressed)
T1 sequence (O88838 12-224 Y120A): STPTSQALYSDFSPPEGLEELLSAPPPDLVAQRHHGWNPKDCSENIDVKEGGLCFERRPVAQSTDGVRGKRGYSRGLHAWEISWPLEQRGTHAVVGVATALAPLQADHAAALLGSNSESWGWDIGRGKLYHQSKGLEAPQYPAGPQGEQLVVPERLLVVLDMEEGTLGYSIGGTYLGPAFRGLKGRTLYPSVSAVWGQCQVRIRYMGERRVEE
In words: ITC of Y120A mutant SSB-2 SPRY domain with iNOS peptide. The note with it: versus SSB-2ΔSB. It is filed as binding. The protocol:
Wild-type and mutant iNOS peptides (Table 2), corresponding to Lys19-Thr31 of mouse iNOS, were synthesized by GL Biochem (Shanghai) Ltd. These peptides were N-terminal acetylated and C-terminal amidated. All ITC measurements were carried out at 25° C. using a Microcal omega VP-ITC (Microcal Inc., Northampton, Mass.). SSB-2ΔSB was dialysed against buffer (100 mM TrisHCl, 150 mM NaCl, pH 8.0), and wild-type and mutant iNOS N-terminal peptides were prepared in the same buffer from 5 mM stocks. Solutions of 5 to 10 μM SSB-2ΔSB in the cell were titrated by injection of a total of 290 μL of 50-200 μM of iNOS peptides. Data analysis was performed using the evaluation software, MicroCal Origin version 5.0. All curves were fitted using the nonlinear least-squares fitter and the “One Set of Sites” model.
Additional conserved residues flanking the DINNN (SEQ ID NO:36) sequence (Lys22, Val28 and Lys30) also contribute to the interaction, as alanine substitutions of these residues had 2- to 4-fold lower SSB-2 binding affinities than the wild-type peptide. […] Mutation of Glu21 had no effect on SSB-2:iNOS peptide binding. […] Binding of an SSB-2-SPRY domain in which tyrosine 120 had. been mutated to alanine (Y120A-SSB-2ΔSB) was assessed by ITC. The iNOS peptide bound Y120A-SSB-2ΔSB with ˜5000-fold reduced affinity, evidence that Tyr120 in SSB-2 is critical for binding to the iNOS peptide (Table 2).

Another experiment addresses T2, iNOS/SSB-2 interaction (Mus musculus, UniProt O88838).
T2 construct: cDNA clones covering the entire coding region of murine SSB-1 to −4 were isolated; expressed in transfected cells; host or cells: 293T cells (Flag-SSB-2); C57BL/6 BMDM lysate (iNOS)
T2 sequence (O88838 1-264): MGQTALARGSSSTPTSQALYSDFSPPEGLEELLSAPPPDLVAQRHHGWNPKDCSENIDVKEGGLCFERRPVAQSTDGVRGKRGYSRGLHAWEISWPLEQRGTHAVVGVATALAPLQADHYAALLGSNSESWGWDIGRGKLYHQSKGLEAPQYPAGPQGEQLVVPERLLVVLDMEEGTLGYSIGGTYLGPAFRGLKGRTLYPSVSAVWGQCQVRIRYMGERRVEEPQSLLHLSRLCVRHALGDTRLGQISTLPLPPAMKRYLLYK
Kind of experiment: Peptide competition assay (anti-Flag immunoprecipitation, anti-iNOS Western blot). Format: binding. The procedure:
293T cells were transfected with vector alone or a construct expressing FLAG-tagged SSB-2 and lysed as described above. iNOS peptide (SEQ ID NO:3) was added in increasing concentrations (0.001, 0.01, 0.1, 1.0 and 10 μM) to iNOS-expressing lysate generated from C57BL/6 BMDM stimulated with LPS/IFNγ. 293T lysates were then added to the macrophage/iNOS peptide lysates and incubated for 1 h at 4° C. Anti-Flag antibody coupled to Sepharose beads (M2, Sigma) was added to the lysate mix and incubated for 3 h at 4° C. Complexes were then separated by SDS-PAGE and analysed by Western blot with anti-iNOS antibodies.
Given that there are a number of disease states where elevated or prolonged iNOS expression might be beneficial, the present inventors were interested in whether the iNOS/SSB-2 interaction could be disrupted. As a simple proof-of-concept experiment, free iNOS peptide was used to competitively disrupt the interaction. 293T cells were transiently transfected with cDNA expressing Flag-tagged SSB-2, lysed and mixed with iNOS-expressing macrophage lysates which contained increasing amounts of free iNOS peptide.
Background: Immunoblotting shows a protein as a band on a membrane.

In experiment [1] the target is T3, SSB-2/elongin BC complex ubiquitination of iNOS (Mus musculus, UniProt O88838).
T3 sequence (O88838 1-264): T2 sequence (O88838 1-264)
In words: Cell-free ubiquitination assay of iNOS. The note with it: excess free iNOS peptide; 10 and 40 min incubation. It is filed as biochemical. The procedure:
Ubiquitination assays were performed in 20 μl in 20 mM Tris-HCl, 50 mM NaCl, 5 mM MgCl2, 2.5 mM ATP, 0.1 mM DTT. Reactions were stopped by the addition of 2×SDS PAGE loading buffer and heating at 95° C. for 5 min. Reactions contained 0.1 μM E1, 2.5 μM E2, 2.5 μM E3, 50 μM ubiquitin and 5 μM SSB-2/elonginBC and were incubated for 30 minutes or as indicated at 37° C. Cell lysate was added as substrate. Results were visualised by Western Blot using anti iNOS monoclonal antibody following SDS-PAGE.
SOCS box proteins recruit an E3 ubiquitin ligase complex which in the presence of E1 and […] enzymes polyubiquitinates interacting proteins, targeting them for proteasomal degradation. […] LPS/IFNγ stimulated macrophage lysates were used as a source of iNOS and incubated with ubiquitin and a trimeric SSB-2/elongin BC complex, in the presence of E1 and E2 enzymes, Rbx 1 and Cullin5. The reaction mixtures were then analysed by SDS-PAGE and Western blot with anti-iNOS antibodies. Enhanced. polyubiquitination of iNOS, as evidenced by higher molecular weight smearing, was observed after 10 and 40 min incubation in the presence of the SSB2/elongin BC complex.

In the case of “Ac-KEEKDINNNVKKT-NH2 [I, Ac-KEEKDINNNVKKT-NH2]”, the “fold reduced affinity for Y120A-SSB-2ΔSB” value on Y120A-SSB-2ΔSB was approximately 5000 fold. In addition, the “inhibition of SSB-2 interaction with iNOS” value is reported as “modestly inhibited” at iNOS/SSB-2 interaction (100 nM iNOS peptide) and “completely inhibited” at iNOS/SSB-2 interaction (1000 nM peptide). Also, the “inhibition of polyubiquitination of iNOS” value in experiment [1] is “completely inhibited”.

(Values after US20120308570A1, “METHODS FOR TREATING DISEASES” (priority 2009, published 2012).)
